The term melting point denotes the temperature, or range, at which the solid turns liquid.

From a melting point compilation (Tetko et al.) come the findings set out here.

`CCCOc1ccc(C(=O)O)cc1N` registered a melting point of 122 to 124 °C. For the compound `NCC(O)COc1ccc(F)cc1` (configuration not stated), the melting point was 71 to 73 °C.

`NC(=NO)c1ccsc1`: the melting point is 66 to 68 °C.

In turn, `O=C1Nc2cc(Br)ccc2C1=O` came in with a melting point of 259 to 261 °C.

Turning to `ON=Cc1cccc(OCc2ccncc2)c1`, the melting point was 177 to 179 °C.

`Cc1cc(C(=O)CCl)c(C)n1-c1ccc(Cl)c(C(F)(F)F)c1` displayed a melting point of 139 to 141 °C. Next, `NCC(CCC(=O)O)C(F)(F)F` (configuration not stated): 155 to 157 °C; `CC(Cl)C1CC(c2ccccc2)=NO1` (configuration not stated): 59 to 61 °C; `COc1ccc(N)cc1OCc1cn2ccccc2n1`: 190 to 192 °C.

For `CCN(CC)S(=O)(=O)c1cc(N)ccc1C`, the melting point lay in the range of 166 to 169 °C. Next, `Cc1nnc(Cl)c(C#N)c1C`: 61 to 63 °C; `CCOCCCNC(=O)CC#N`: 45 to 49 °C. Next, `C=CCN1C(=O)c2ccc(C(=O)O)cc2C1=O`: 154 to 156 °C. `Cc1cc(N)nc(C(C)C)n1` returned a melting point of 196 to 198 °C. Next, `Nc1nc(=O)cn[nH]1`: 249 to 251 °C; `CN(C)C(=O)c1ccc(Cl)nc1`: 67 to 69 °C; `COc1ccc(Cl)cc1CCl`: 44 to 46 °C. Next, `Cc1cccn2c(=O)c(C(=O)O)cnc12`: 205 to 207 °C; `O=C(O)c1nn(-c2c(Cl)cc(Cl)cc2Cl)cc1O`: 194 to 196 °C; `O=C1c2ccccc2C(=O)N1CC1(CBr)CCCC1`: 68 to 70 °C. Next, `Cc1cc(CO)c2ccccc2n1`: 144 to 146 °C. As for `CN(C)C(=O)c1ccc(F)nc1`, the melting point was 44 to 46 °C. Next, `O=C(CCl)Nc1ccc(F)cc1Cl`: 76 to 78 °C. Next, `COC(=O)CCS(=O)(=O)c1ccc(Br)cc1`: 75 to 77 °C; `Cc1cccc(NC(=O)CCl)c1`: 128 to 130 °C; `Cc1ccc(-c2nnc(C(C)Cl)o2)cc1C` (configuration not stated): 86 to 88 °C. Next, `Cc1ccccc1N(CC(=O)O)S(C)(=O)=O`: 109 to 111 °C.

For the compound `COc1ccc(C)cc1NC(=O)CCl`, the melting point is 73 to 75 °C. Next, `OC1CCN(c2nncc3ccccc23)CC1`: 135 to 137 °C; `Nc1nc2cc(S(=O)(=O)N3CCCC3)ccc2o1`: 240 to 242 °C; `N#Cc1ccc(NC(=O)CC2CCCC2)cc1`: 145 to 147 °C. Next, `OC1CCCCC1c1ccc(Cl)cc1` (configuration not stated): 83 to 85 °C; `Nc1cc(S(=O)(=O)N2CCOCC2)ccc1O`: 199 to 201 °C. Next, `Nc1ccc(C(=O)NC2CCCC2)cc1`: 141 to 143 °C. `CCC(=O)c1ccc(N(C)C)cc1` showed a melting point of 104 to 106 °C.

`Cc1ccc(C(=O)N=[N+]=[N-])o1` showed a melting point of 33 to 35 °C.

In turn, `O=C(O)CNC(=O)c1ccc(Br)o1` came in with a melting point of 91 to 93 °C. Next, `O=C(O)CSc1nccn1-c1ccc(C(F)(F)F)cc1`: 119 to 121 °C. Next, `CNS(=O)(=O)c1ccc(N)cc1OC`: 187 to 189 °C; `CC(C)(C)c1nccc(=O)[nH]1`: 205 to 207 °C.

Turning to `Cc1ccc(C)c(-n2ncc(N)c2C)c1`, the melting point is 62 to 64 °C. Next, `COc1ccccc1-c1cnc(CCl)o1`: 86 to 88 °C; `O=C(O)c1cc(Cl)nc(Cl)n1`: 114 to 116 °C; `COc1ccc2cc(CCl)c(Cl)nc2c1`: 133 to 135 °C. Next, `O=Cc1cn(-c2ccccc2)nc1-c1ccc(-c2nn(-c3ccccc3)cc2C=O)cc1`: 271 to 273 °C. Next, `CN(C)C(C(=O)O)c1cccnc1` (configuration not stated): 184 to 186 °C. Regarding `Cc1cc(C(=O)O)ccc1-n1cncn1`, the melting point fell in the range of 242 to 244 °C. Next, `NNC(=O)c1cc2ccccc2o1`: 171 to 173 °C; `O=S(=O)(c1ccc(CCl)cc1)C(F)F`: 63 to 65 °C; `O=C(CCl)N1CCN(S(=O)(=O)c2ccc3c(c2)CCC3)CC1`: 120 to 122 °C. Next, `O=C1CCc2ccccc2CN1`: 124 to 126 °C. Next, `CCOC(=O)c1nc(Cl)c2ccccc2n1`: 99 to 101 °C; `CNc1ccncc1[N+](=O)[O-]`: 157 to 159 °C; `NC1CCN(C(=O)C2CCCCC2)C1` (configuration not stated): 72 to 74 °C.

The compound `O=C(O)COC1CCOCC1` displayed a melting point of 65 to 67 °C.

`Cc1nnc2c(Cl)cccn12`: the melting point lay within 163 to 165 °C.

In the case of `Cc1cccc([N+](=O)[O-])c1C(N)=O`, the melting point was in the range of 158 to 160 °C.

`COc1ccc(Oc2ccc(C=O)cc2)cc1` had a melting point of 65 to 67 °C. Next, `Cc1cc(C)cc(N2CCC(C(=O)O)C2=O)c1` (configuration not stated): 115 to 117 °C; `O=C(O)CNC(=O)C1CCC1`: 107 to 109 °C; `CN1C(=O)CCC(CO)C1c1cccc(Cl)c1` (configuration not stated): 122 to 124 °C. Compound `NC(=S)c1ccccc1O` gave a melting point of 118 to 120 °C.

Regarding `O=C(O)c1ccc(Oc2ccccc2Cl)cc1`, the melting point was 144 to 146 °C. Next, `Cc1ccc(-n2nc(C)c(NC(=O)OCC(F)(F)F)c2C)cc1`: 145 to 147 °C; `O=C(O)c1cccc(S(=O)(=O)N2CCOCC2)c1`: 198 to 200 °C; `Cn1cc(OCc2ccccc2)c(=O)cc1CO`: 221 to 223 °C.

As for `Nc1cc(C(=O)O)ccc1NCCCN1CCOCC1`, the melting point lay within 216 to 218 °C. Next, `O=C(CCl)NC(=O)c1ccccc1`: 157 to 159 °C; `CCOc1cc2c(cc1C=O)OC(C)C2` (configuration not stated): 74 to 78 °C; `Cc1cc(O)c(C#N)c(C)n1`: 301 to 303 °C.

The compound `CC(=O)Nc1ccccc1CC(=O)O` showed a melting point of 144 to 146 °C. `CC(C)c1cnc(S)n1C1CC1` came in with a melting point of 175 to 177 °C. Compound `Cc1nonc1N` showed a melting point of 56 to 58 °C. Next, `Cc1cc(C(=O)O)sc1C=O`: 204 to 206 °C; `Cc1c(NS(=O)(=O)c2ccc(Cl)c([N+](=O)[O-])c2)c(=O)n(-c2ccccc2)n1C`: 227 to 229 °C.

Take `O=C(O)C1CCN(c2cnccn2)CC1`: the melting point was 149 to 151 °C.

For the compound `Cc1ccc(S(N)(=O)=O)cc1C(N)=O`, the melting point lay in the range of 192 to 194 °C. Next, `OCc1cc2ccc(Br)cc2[nH]1`: 115 to 117 °C; `Cc1cc(C)c(-c2cc(N)[nH]n2)cc1C`: 145 to 147 °C. Turning to `COc1ccc(-c2nc(CN)cs2)cc1`, the melting point lay within 67 to 69 °C.

Compound `CCCc1ccc(S(N)(=O)=O)cc1` showed a melting point of 208 to 210 °C. Next, `O=C(O)c1cccc(NC(=O)c2ccc(F)cc2)c1`: 279 to 281 °C; `O=C(O)c1nc(-c2ccccc2)oc1-c1ccccc1`: 193 to 195 °C; `N#Cc1ccc(N2C(=O)NC(CCC(=O)O)C2=O)cc1` (configuration not stated): 220 to 222 °C. Next, `Cn1cnnc1Sc1ccc(C=O)cc1[N+](=O)[O-]`: 171 to 173 °C. Next, `CCC(C)(C)c1ccc(OCCCC(=O)O)c(C(C)(C)CC)c1`: 99 to 101 °C; `Nc1nc2c(s1)CNCC2`: 176 to 178 °C.
